According to ChEMBL document CHEMBL1909499, “Protective effects of amentoflavone on Lamin A-dependent UVB-induced nuclear aberration in normal human fibroblasts” (Bioorg Med Chem Lett, 2011):
Active and inactive are the calls of the source. The rule behind the calls is not given here.

How the values were obtained:
[1] = test system: Fibroblast; assay: Antiaging activity in human fibroblasts assessed as reduction in UVB-induced lamin A protein level after 6 days by Western blot method; format: functional, cell-based
[2] = test system: Fibroblast; assay: Antiaging activity in fibroblasts isolated from human assessed as reduction in UVB-induced phospho-H2AX protein level after 6 days by Western blotting method; format: functional, cell-based
[3] = Cytotoxicity against human UVB-induced fibroblasts assessed as cell viability; format: cell-based; details: fibroblast
[4] = test system: Fibroblast; assay: Antiaging activity in human fibroblasts assessed as reduction in UVB-induced phospho-H2AX protein level after 6 days by Western blotting method; format: functional, cell-based
[5] = test system: Fibroblast; assay: Antiaging activity in human fibroblasts assessed as reduction of UVB-induced nucleus deformation after 6 days by confocal microscopy analysis; format: functional, cell-based
[6] = test system: Fibroblast; assay: Antiaging activity in human fibroblasts assessed as reduction in UVB-induced phospho-H2AX protein level after 6 days by confocal microscopy analysis; format: functional, cell-based

## O=c1cc(-c2ccc(O)c(-c3c(O)cc(O)c4c(=O)cc(-c5ccc(O)cc5)oc34)c2)oc2cc(O)cc(O)c12 [AMENTOFLAVONE]
[1]
  Activity: Dose-dependent effect
[2]
  Activity: Dose-dependent effect
[3]
  Activity: Non-toxic
[4]
  Activity: Dose-dependent effect
[5]
  Activity: Active
[6]
  Activity: Active
